From PubChem BioAssay AID2060487 (Molecular Pharmacology Branch, DTP, NCI, 2025)

System: 997537-175-T-J1-PDC complex spheroid viability
Assay: Anticancer human tumor 997537-175-T-J1-PDC patient-derived colon adenocarcinoma cell line growth inhibition [GQUAD]
Details: for IC50: curve of first compound; for viability, T/C: stronger effect = lower value
How it was run: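 Multi-cell-type spheroids of tumor cells with HUVEC and mesenchymal stem cells, treated with drug combinations. Concentrations descend in half-log steps from near clinical Cmax, or from 10 microM where Cmax is unknown; viability read-out.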

[1] = second compound 0.0316 µM, first compound 0.0316 µM
[2] = second compound 0.0316 µM, first compound 0.1 µM
[3] = second compound 0.0316 µM, first compound 0.316 µM
[4] = second compound 0.0316 µM, first compound 1 µM
[5] = second compound 0.0316 µM, first compound 3.16 µM
[6] = second compound 0.0316 µM, first compound 10 µM
[7] = second compound 0.1 µM, first compound 0.0316 µM
[8] = second compound 0.1 µM, first compound 0.1 µM
[9] = second compound 0.1 µM, first compound 0.316 µM
[10] = second compound 0.1 µM, first compound 1 µM
[11] = second compound 0.1 µM, first compound 3.16 µM
[12] = second compound 0.1 µM, first compound 10 µM
[13] = second compound 0.316 µM, first compound 0.0316 µM
[14] = second compound 0.316 µM, first compound 0.1 µM
[15] = second compound 0.316 µM, first compound 0.316 µM
[16] = second compound 0.316 µM, first compound 1 µM
[17] = second compound 0.316 µM, first compound 3.16 µM
[18] = second compound 0.316 µM, first compound 10 µM
[19] = second compound 1 µM, first compound 0.0316 µM
[20] = second compound 1 µM, first compound 0.1 µM
[21] = second compound 1 µM, first compound 0.316 µM
[22] = second compound 1 µM, first compound 1 µM
[23] = second compound 1 µM, first compound 3.16 µM
[24] = second compound 1 µM, first compound 10 µM
[25] = second compound 3.16 µM, first compound 0.0316 µM
[26] = second compound 3.16 µM, first compound 0.1 µM
[27] = second compound 3.16 µM, first compound 0.316 µM
[28] = second compound 3.16 µM, first compound 1 µM
[29] = second compound 3.16 µM, first compound 3.16 µM
[30] = second compound 3.16 µM, first compound 10 µM
[31] = second compound 10 µM, first compound 0.0316 µM
[32] = second compound 10 µM, first compound 0.1 µM
[33] = second compound 10 µM, first compound 0.316 µM
[34] = second compound 10 µM, first compound 1 µM
[35] = second compound 10 µM, first compound 3.16 µM
[36] = second compound 10 µM, first compound 10 µM
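Further: spheroids exposed to the agents for 7 days.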
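Wherever viability, T/C is given: 100% = DMSO vehicle control viability.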

With Nc1ccn(C2OC(CO)C(O)C2(F)F)c(=O)n1 (stereo not drawn) + Cc1[nH]c2ccc(F)cc2c1-c1nc2c3cccnc3c3ncccc3c2[nH]1 the IC50 (second compound 0.0316 µM) was over 10 µM, the IC50 (second compound 0.1 µM) was over 10 µM and the IC50 (second compound 0.316 µM) was over 10 µM. For the same compound, the IC50 (second compound 1 µM) was over 10 µM, the IC50 (second compound 3.16 µM) was over 10 µM and the IC50 (second compound 10 µM) was over 10 µM. For the same compound, the viability, T/C [1] was 106%, the viability, T/C [2] was 82.5% and the viability, T/C [3] was 98.7%. The viability, T/C [4] was 80.1%, the viability, T/C [5] was 86.2% and the viability, T/C [6] was 97.4%. The viability, T/C [7] was 107%, the viability, T/C [8] was 87.2% and the viability, T/C [9] was 91.5%. It also gave a viability, T/C [10] of 74.2%, a viability, T/C [11] of 87.4% and a viability, T/C [12] of 87.5%. It also gave a viability, T/C [13] of 99.2%, a viability, T/C [14] of 84.6% and a viability, T/C [15] of 84.1%. The viability, T/C [16] was 73.9%, the viability, T/C [17] was 90.4% and the viability, T/C [18] was 70.2%. It also gave a viability, T/C [19] of 103%, a viability, T/C [20] of 96.3% and a viability, T/C [21] of 94.7%. For the same compound, the viability, T/C [22] was 98.2%, the viability, T/C [23] was 82.6% and the viability, T/C [24] was 93.5%. It also gave a viability, T/C [25] of 77.4%, a viability, T/C [26] of 69% and a viability, T/C [27] of 76%. The viability, T/C [28] was 73.1%, the viability, T/C [29] was 83% and the viability, T/C [30] was 84.8%. It also gave a viability, T/C [31] of 78.3%, a viability, T/C [32] of 81.4% and a viability, T/C [33] of 90.4%. It also gave a viability, T/C [34] of 87.2%, a viability, T/C [35] of 80.1% and a viability, T/C [36] of 87.5%.

For CC(C)n1c(=O)n(C)c2cnc3cc(F)c(-c4ccc(OCCCN5CCCCC5)nc4)cc3c21 + Cc1cnc(CNC(=O)c2c(=O)c3ccc(N4CCCN(C)CC4)nc3n3c2sc2ccccc23)cn1, the IC50 (second compound 0.0316 µM) was over 10 µM, the IC50 (second compound 0.1 µM) was over 10 µM and the IC50 (second compound 0.316 µM) was over 10 µM. The IC50 (second compound 1 µM) was over 10 µM, the IC50 (second compound 3.16 µM) was over 10 µM and the IC50 (second compound 10 µM) was over 10 µM. It also gave a viability, T/C [1] of 112%, a viability, T/C [2] of 91.3% and a viability, T/C [3] of 104%. It also gave a viability, T/C [4] of 82.3%, a viability, T/C [5] of 91.9% and a viability, T/C [6] of 92.5%. It also gave a viability, T/C [7] of 95%, a viability, T/C [8] of 95.9% and a viability, T/C [9] of 91.5%. The viability, T/C [10] was 82.4%, the viability, T/C [11] was 82.6% and the viability, T/C [12] was 90.9%. It also gave a viability, T/C [13] of 101%, a viability, T/C [14] of 74% and a viability, T/C [15] of 101%. The viability, T/C [16] was 84.8%, the viability, T/C [17] was 108% and the viability, T/C [18] was 93.3%. It also gave a viability, T/C [19] of 95.6%, a viability, T/C [20] of 113% and a viability, T/C [21] of 111%. It also gave a viability, T/C [22] of 80%, a viability, T/C [23] of 114% and a viability, T/C [24] of 105%. For the same compound, the viability, T/C [25] was 87%, the viability, T/C [26] was 104% and the viability, T/C [27] was 108%. It also gave a viability, T/C [28] of 105%, a viability, T/C [29] of 122% and a viability, T/C [30] of 110%. For the same compound, the viability, T/C [31] was 87.8%, the viability, T/C [32] was 93.4% and the viability, T/C [33] was 106%. The viability, T/C [34] was 116%, the viability, T/C [35] was 98.5% and the viability, T/C [36] was 107%.

In the case of CC1COCCN1c1cc(-c2ccnn2C)c2ccnc(-c3ccn[nH]3)c2n1 (stereo not drawn) + Cc1cnc(CNC(=O)c2c(=O)c3ccc(N4CCCN(C)CC4)nc3n3c2sc2ccccc23)cn1, the IC50 (second compound 0.0316 µM) is reported as 0.147 µM, the IC50 (second compound 0.1 µM) is reported as 0.157 µM and the IC50 (second compound 0.316 µM) is reported as under 0.0316 µM. The IC50 (second compound 1 µM) was over 10 µM, the IC50 (second compound 3.16 µM) was over 10 µM and the IC50 (second compound 10 µM) was under 0.0316 µM. For the same compound, the viability, T/C [1] was 80.7%, the viability, T/C [2] was 54% and the viability, T/C [3] was 37.4%. It also gave a viability, T/C [4] of 33.7%, a viability, T/C [5] of 43.5% and a viability, T/C [6] of 53.1%. For the same compound, the viability, T/C [7] was 65.9%, the viability, T/C [8] was 53.8% and the viability, T/C [9] was 48.4%. The viability, T/C [10] was 29.8%, the viability, T/C [11] was 51.7% and the viability, T/C [12] was 55.2%. It also gave a viability, T/C [13] of 52.7%, a viability, T/C [14] of 39% and a viability, T/C [15] of 34.8%. For the same compound, the viability, T/C [16] was 37.6%, the viability, T/C [17] was 48.5% and the viability, T/C [18] was 45%. For the same compound, the viability, T/C [19] was 55.3%, the viability, T/C [20] was 58.5% and the viability, T/C [21] was 67.5%. It also gave a viability, T/C [22] of 57.5%, a viability, T/C [23] of 58.2% and a viability, T/C [24] of 51%. The viability, T/C [25] was 63.1%, the viability, T/C [26] was 63.7% and the viability, T/C [27] was 48.5%. The viability, T/C [28] was 67.5%, the viability, T/C [29] was 57.8% and the viability, T/C [30] was 48%. The viability, T/C [31] was 43.1%, the viability, T/C [32] was 52% and the viability, T/C [33] was 66.7%. The viability, T/C [34] was 54.9%, the viability, T/C [35] was 39.8% and the viability, T/C [36] was 63.3%.

With O=C(c1cc(Cc2n[nH]c(=O)c3ccccc23)ccc1F)N1CCN(C(=O)C2CC2)CC1 + Cc1cnc(CNC(=O)c2c(=O)c3ccc(N4CCCN(C)CC4)nc3n3c2sc2ccccc23)cn1 the IC50 (second compound 0.0316 µM) was over 10 µM, the IC50 (second compound 0.1 µM) was over 10 µM and the IC50 (second compound 0.316 µM) was over 10 µM. It also gave an IC50 (second compound 1 µM) of over 10 µM, an IC50 (second compound 3.16 µM) of over 10 µM and an IC50 (second compound 10 µM) of over 10 µM. The viability, T/C [1] was 95.5%, the viability, T/C [2] was 87.9% and the viability, T/C [3] was 88.9%. For the same compound, the viability, T/C [4] was 85.1%, the viability, T/C [5] was 82.4% and the viability, T/C [6] was 102%. It also gave a viability, T/C [7] of 92.3%, a viability, T/C [8] of 92.5% and a viability, T/C [9] of 82.1%. It also gave a viability, T/C [10] of 72.5%, a viability, T/C [11] of 85.8% and a viability, T/C [12] of 68.9%. It also gave a viability, T/C [13] of 82%, a viability, T/C [14] of 96% and a viability, T/C [15] of 90.1%. The viability, T/C [16] was 99.8%, the viability, T/C [17] was 95.5% and the viability, T/C [18] was 93.8%. It also gave a viability, T/C [19] of 85.6%, a viability, T/C [20] of 106% and a viability, T/C [21] of 105%. The viability, T/C [22] was 89.5%, the viability, T/C [23] was 97% and the viability, T/C [24] was 108%. For the same compound, the viability, T/C [25] was 117%, the viability, T/C [26] was 108% and the viability, T/C [27] was 95.3%. For the same compound, the viability, T/C [28] was 84.4%, the viability, T/C [29] was 99% and the viability, T/C [30] was 89.5%. The viability, T/C [31] was 103%, the viability, T/C [32] was 95.2% and the viability, T/C [33] was 106%. It also gave a viability, T/C [34] of 116%, a viability, T/C [35] of 95.9% and a viability, T/C [36] of 101%.
